Values of other authors in US8808752B2, “Controlled release particles and method for producing the same” (priority 2009, dated 2014).

Structure (SMILES) | water solubility | water solubility (in words)
C=C(C)C(=O)OCCCC [n-Butyl methacrylate] | 0.08 wt % | 
CSc1nc(NC2CC2)nc(NC(C)(C)C)n1 [MBACT, 2-methylthio-4-t-butylamino-6-cyclopropylamino-s-triazine, reference compound] | 7 ppm | 
CCCC1COC(Cn2cncn2)(c2ccc(Cl)cc2Cl)O1 (centres unmarked) [Propiconazole, 1-[2-(2,4-dichlorophenyl)-4-n-propyl-1,3-dioxolane-2-ylmethyl]-1H-1,2,4-triazole, reference compound] | 110 ppm | 
C=C(C)C(=O)O [Methacrylic acid] | 8.9 wt % | 
C=C(C)C(=O)OCCOC(=O)C(=C)C [Ethylene glycol dimethacrylate] |  | water-insoluble
